Values joined by “and” are separate entries in the source; they are usually repeats but may differ in a detail not shown here. Equal values may be shown once.
Legend:
ULK1 = biological target: T1, ULK1 (Homo sapiens, UniProt O75385); test: ULK1 ADP Hunter Plus kinase activity assay; type: biochemical; conditions: resynthesized samples; mean potency in parenthesis, n = 5; read-out: IC50 against ULK1 (converted)
T1 construct: purchased MRC PPU Reagents and Services, Dundee, Scotland
T1 sequence (O75385 1-1050): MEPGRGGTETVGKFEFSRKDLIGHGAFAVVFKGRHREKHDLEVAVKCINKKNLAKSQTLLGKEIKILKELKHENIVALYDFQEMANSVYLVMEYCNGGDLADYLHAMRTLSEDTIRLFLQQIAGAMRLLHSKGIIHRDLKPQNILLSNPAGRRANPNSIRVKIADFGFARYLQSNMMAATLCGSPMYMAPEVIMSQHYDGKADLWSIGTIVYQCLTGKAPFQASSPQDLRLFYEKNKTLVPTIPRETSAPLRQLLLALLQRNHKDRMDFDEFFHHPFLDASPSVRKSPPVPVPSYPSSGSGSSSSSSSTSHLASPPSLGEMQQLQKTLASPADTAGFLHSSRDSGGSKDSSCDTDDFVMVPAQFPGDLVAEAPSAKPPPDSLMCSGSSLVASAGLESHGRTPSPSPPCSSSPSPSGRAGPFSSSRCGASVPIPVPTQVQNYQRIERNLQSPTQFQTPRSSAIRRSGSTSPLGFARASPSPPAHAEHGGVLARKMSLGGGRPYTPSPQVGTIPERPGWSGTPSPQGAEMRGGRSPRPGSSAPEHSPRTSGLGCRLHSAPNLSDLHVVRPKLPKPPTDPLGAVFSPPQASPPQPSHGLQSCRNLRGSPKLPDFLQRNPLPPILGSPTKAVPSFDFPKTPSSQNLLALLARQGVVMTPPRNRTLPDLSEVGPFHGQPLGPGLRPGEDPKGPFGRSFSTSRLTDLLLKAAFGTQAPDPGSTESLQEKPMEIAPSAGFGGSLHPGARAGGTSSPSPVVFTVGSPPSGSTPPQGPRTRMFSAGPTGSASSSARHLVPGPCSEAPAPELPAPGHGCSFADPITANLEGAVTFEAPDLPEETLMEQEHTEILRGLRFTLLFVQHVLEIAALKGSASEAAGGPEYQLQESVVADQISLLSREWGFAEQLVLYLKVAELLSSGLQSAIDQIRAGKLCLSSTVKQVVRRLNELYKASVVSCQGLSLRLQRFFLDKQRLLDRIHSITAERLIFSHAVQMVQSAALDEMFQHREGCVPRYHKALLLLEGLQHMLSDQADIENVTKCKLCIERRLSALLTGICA

AMPK α1β2ɣ1 = AMPK α1β2ɣ1 (Homo sapiens, UniProt O43741+P54619+Q13131); test: AMPK ADP Hunter Plus kinase activity assay
AMPK α1β2ɣ1, sequence (Q13131 whole entry): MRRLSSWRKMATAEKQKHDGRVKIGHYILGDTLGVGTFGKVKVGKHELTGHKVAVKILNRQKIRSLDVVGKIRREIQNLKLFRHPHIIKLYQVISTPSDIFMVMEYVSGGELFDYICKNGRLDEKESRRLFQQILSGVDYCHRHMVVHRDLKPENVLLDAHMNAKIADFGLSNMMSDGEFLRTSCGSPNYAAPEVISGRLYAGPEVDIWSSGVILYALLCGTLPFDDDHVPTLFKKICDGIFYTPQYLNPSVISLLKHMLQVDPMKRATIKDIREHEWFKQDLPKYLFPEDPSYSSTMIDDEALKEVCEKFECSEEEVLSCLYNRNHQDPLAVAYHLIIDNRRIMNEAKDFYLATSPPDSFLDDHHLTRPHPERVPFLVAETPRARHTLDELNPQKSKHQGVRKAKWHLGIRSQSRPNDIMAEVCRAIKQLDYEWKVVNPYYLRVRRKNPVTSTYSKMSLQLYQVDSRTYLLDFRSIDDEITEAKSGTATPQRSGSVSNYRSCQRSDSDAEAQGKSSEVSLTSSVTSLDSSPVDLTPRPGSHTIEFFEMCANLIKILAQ
AMPK α1β2ɣ1, sequence (O43741 whole entry partner): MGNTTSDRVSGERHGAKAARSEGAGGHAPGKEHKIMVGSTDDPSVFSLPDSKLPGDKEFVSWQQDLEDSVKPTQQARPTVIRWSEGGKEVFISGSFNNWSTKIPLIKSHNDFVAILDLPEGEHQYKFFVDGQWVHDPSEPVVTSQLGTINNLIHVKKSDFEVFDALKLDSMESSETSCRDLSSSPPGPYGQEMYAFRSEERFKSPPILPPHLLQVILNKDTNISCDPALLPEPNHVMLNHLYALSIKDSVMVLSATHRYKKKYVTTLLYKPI
AMPK α1β2ɣ1, sequence (P54619 whole entry partner): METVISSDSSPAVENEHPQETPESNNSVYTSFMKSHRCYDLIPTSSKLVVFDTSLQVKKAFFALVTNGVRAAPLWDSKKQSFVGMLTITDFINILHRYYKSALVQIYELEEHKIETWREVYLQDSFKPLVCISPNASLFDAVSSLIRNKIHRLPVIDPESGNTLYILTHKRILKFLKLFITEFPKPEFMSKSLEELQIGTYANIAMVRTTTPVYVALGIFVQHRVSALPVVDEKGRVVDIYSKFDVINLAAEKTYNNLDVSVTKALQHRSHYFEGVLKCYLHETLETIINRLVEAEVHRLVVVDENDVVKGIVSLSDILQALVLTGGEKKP

VPS34 = VPS34 (Homo sapiens, UniProt Q8NEB9); test: VPS34 ADP Hunter Plus kinase activity assay; conditions: for Mechanism of inhibition of VPS34 with respect to ATP: varying ATP below 200 µM, Michaelis–Menten and Lineweaver–Burk plots; for Mechanism of inhibition of VPS34 with respect to PI:PS: varying PI:PS below 12 µM
VPS34, sequence (Q8NEB9 whole entry): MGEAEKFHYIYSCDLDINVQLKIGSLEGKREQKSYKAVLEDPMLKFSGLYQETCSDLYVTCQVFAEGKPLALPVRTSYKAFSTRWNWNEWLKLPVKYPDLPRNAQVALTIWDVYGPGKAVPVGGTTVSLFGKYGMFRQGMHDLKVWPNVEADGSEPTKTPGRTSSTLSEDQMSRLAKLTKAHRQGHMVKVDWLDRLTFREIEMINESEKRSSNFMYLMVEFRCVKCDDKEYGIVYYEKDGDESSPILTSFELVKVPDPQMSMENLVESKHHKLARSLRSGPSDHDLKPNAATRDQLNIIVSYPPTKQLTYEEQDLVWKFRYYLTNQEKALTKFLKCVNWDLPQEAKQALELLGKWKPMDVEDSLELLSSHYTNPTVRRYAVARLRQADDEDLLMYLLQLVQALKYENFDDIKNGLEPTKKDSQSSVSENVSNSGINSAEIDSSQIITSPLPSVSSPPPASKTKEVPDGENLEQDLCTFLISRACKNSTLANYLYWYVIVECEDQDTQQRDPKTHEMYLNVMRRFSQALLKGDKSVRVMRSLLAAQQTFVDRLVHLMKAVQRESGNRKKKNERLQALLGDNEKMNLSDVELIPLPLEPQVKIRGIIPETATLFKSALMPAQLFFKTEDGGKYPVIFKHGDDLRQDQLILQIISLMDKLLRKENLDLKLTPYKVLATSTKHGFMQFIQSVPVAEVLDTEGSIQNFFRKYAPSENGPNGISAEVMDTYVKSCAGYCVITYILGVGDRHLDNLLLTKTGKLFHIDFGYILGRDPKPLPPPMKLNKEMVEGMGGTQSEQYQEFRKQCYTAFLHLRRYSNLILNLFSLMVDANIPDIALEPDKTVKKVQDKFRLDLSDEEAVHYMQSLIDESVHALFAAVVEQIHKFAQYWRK

VPS34 (WIPI2 puncta) = test: Cellular VPS34 activity: WIPI2 puncta immunofluorescence in U2OS cells; type: cell-based, human
Procedure: (§1) U2OS (human osteosarcoma-derived) cells were cultured in DMEM supplemented with 10% foetal bovine serum, 100 U/ml Penicillin and […] L-glutamine. Cells were pre-treated with compounds at the indicated concentrations for 60 min followed by treatments with EBSS or EBSS combined with/without 50 nM Bafilomycin A1 (Enzo Life Sciences) for a further 60 or 120 min with/without inhibitors, as indicated in figures/figure legends.
(§2) Prior to immunofluorescence, cells were grown on glass coverslips to ∼60% confluency. Cells were washed in PBS prior to fixation with 3.7% PFA/10 mM HEPES pH 7.0 at room temperature for 20 min. PFA was quenched using DMEM/10 mM HEPES pH 7.0/0.02% NaN3, followed by permeabilisation with 0.2% NP-40 in PBS for 5 min, followed by blocking with 1% BSA/PBS/0.02% NaN3. Primary antibody incubation was at room temperature for 60 min, followed by two 10-minute washes, then fluorescent secondary antibody incubation for 30 min and further washes (all in blocking buffer) before mounting onto glass slides. A wide field Nikon TS microscope was used for image capturing.
(§3) Quantification of western blots was performed with band densitometry analysis using ImageJ. Quantification of LC3 puncta was performed using either the ITCN plugging in ImageJ or Volocity. One-way or two-way Anova (using GraphPad Prism) followed by a post-hoc test, was used for statistical analysis of western blots and immunofluorescence as indicated in figure legends.

LC3 flux in U2OS cells = test: Autophagic flux: LC3-II western blot with/without BafA1 in U2OS cells; type: cell-based, human; conditions: for Effect on starvation-induced LC3 flux: 5 µM, 60 min pre-treatment then 60 min EBSS ± 50 nM BafA1, U2OS
Procedure: as §1
(§4) Prior to western blot analysis, cells were washed twice in ice-cold PBS and lysed in buffer containing 50 mM HEPES pH 7.4, 150 mM NaCl, 1 mM EDTA, 10% Glycerol, 0.5% NP-40, 1 mM DTT, supplemented with phosphatase inhibitors (1.15 mM sodium molybdate, 4 mM sodium tartrate, 0.01 M β-glycerophosphate, 1 mM sodium fluoride, 1 mM sodium orthovanadate) and protease inhibitor tablets (Roche) according to manufacturer's instructions. Lysates were then spun at 20 000×g for 10 min and the supernatant was collected for protein content estimation using Protein Assay Dye Reagent Concentrate from Bio-Rad. 4× LDS was added to the lysate (final dilution 1×) prior to heating at 95°C for 5 min. Electrophoresis and transfer to PVDF membranes was performed using standard protocols. Membranes were blocked in 5% milk in TBS-T prior to incubation with primary antibodies (in 5% milk/TBS-T for ULK1, pS555 (human S556) ULK1, pS757 (human S758) ULK1, pS318-ATG13, ATG13, and in 5% BSA/TBS-T for LC3 and α-Tubulin) under rotation overnight at 4°C followed by washes in TBS-T and incubation with HRP-conjugated secondary antibodies (in 5% milk in TBS-T) for 60 min at room temperature. Membranes were washed in TBS-T before application of ECL reagent (GE healthcare) and development on hypersensitive X-ray films (GE healthcare) (Figures 5A, 6C and Supplementary Figure S7C) or using BIO-RAD Clarity^TM western blotting substrate (Supplementary Figure S6C and Supplementary Figure S7A) and a BIO-RAD ChemiDoc^TM imaging system.
as §3

ULK1 (pS318 ATG13) = test: Cellular ULK1 kinase activity: pS318 ATG13 western blot in U2OS cells; type: cell-based, human; conditions: 5 µM, 60 min pre-treatment then 60 min EBSS, U2OS
Procedure: as §1
as §4, with “Lysates” for “Prior to western blot analysis, cells were washed twice in ice-cold PBS and lysed in buffer containing 50 mM HEPES pH 7.4, 150 mM NaCl, 1 mM EDTA, 10% Glycerol, 0.5% NP-40, 1 mM DTT, supplemented with phosphatase inhibitors (1.15 mM sodium molybdate, 4 mM sodium tartrate, 0.01 M β-glycerophosphate, 1 mM sodium fluoride, 1 mM sodium orthovanadate) and protease inhibitor tablets (Roche) according to manufacturer's instructions. Lysates”
as §3

LC3 puncta in U2OS cells = test: Endogenous LC3 puncta immunofluorescence in U2OS cells; type: cell-based, human
Procedure: as §1, §2, §3

AMPK (ULK1 pS556) = test: Upstream AMPK activity: ULK1 pS556 western blot in U2OS cells; type: cell-based, human; conditions: 100 nM (VPS34-IN1 500 nM), 60 min pre-treatment, ± EBSS 60 min
Procedure: as §1
as §4, with “Lysates” for “Prior to western blot analysis, cells were washed twice in ice-cold PBS and lysed in buffer containing 50 mM HEPES pH 7.4, 150 mM NaCl, 1 mM EDTA, 10% Glycerol, 0.5% NP-40, 1 mM DTT, supplemented with phosphatase inhibitors (1.15 mM sodium molybdate, 4 mM sodium tartrate, 0.01 M β-glycerophosphate, 1 mM sodium fluoride, 1 mM sodium orthovanadate) and protease inhibitor tablets (Roche) according to manufacturer's instructions. Lysates”
as §3

mTOR (ULK1 pS758) = test: Upstream mTOR activity: ULK1 pS758 western blot in U2OS cells; type: cell-based, human; conditions: 100 nM (VPS34-IN1 500 nM), 60 min pre-treatment, ± EBSS 60 min
Procedure: as §1
as §4, with “Lysates” for “Prior to western blot analysis, cells were washed twice in ice-cold PBS and lysed in buffer containing 50 mM HEPES pH 7.4, 150 mM NaCl, 1 mM EDTA, 10% Glycerol, 0.5% NP-40, 1 mM DTT, supplemented with phosphatase inhibitors (1.15 mM sodium molybdate, 4 mM sodium tartrate, 0.01 M β-glycerophosphate, 1 mM sodium fluoride, 1 mM sodium orthovanadate) and protease inhibitor tablets (Roche) according to manufacturer's instructions. Lysates”
as §3

[1] = IC50 against VPS34, resynthesized samples, mean potency in parenthesis, n = 5
[2] = pIC50 against VPS34, original PKIS samples, concentration-dependent retest of screen hits

For `O=S(=O)(c1ccc(-c2ccnc3[nH]ccc23)cc1)N1CCCC1` [GSK846226A], the IC50 (ULK1) was 603 nM, the IC50 (AMPK α1β2ɣ1) was 2510 nM and the IC50 (VPS34; IC50 against VPS34, resynthesized sample) was 1200 nM. The IC50 (VPS34; [1]) was 1200 nM, the IC50 (VPS34; [2]) was under 1000 nM and the “Mechanism of inhibition of VPS34 with respect to ATP” value (VPS34) was “primarily ATP competitive inhibition”. The “Mechanism of inhibition of VPS34 with respect to PI:PS” value (VPS34) was “clear non-competitive inhibition” and the “Concentration with inhibitory effect on WIPI2 puncta formation” value (VPS34 (WIPI2 puncta); EBSS, not at lower concentrations) was 5 µM.

`CC(C)(CO)CNC(=O)c1ccc2c(c1)/C(=N/Nc1ccc(S(N)(=O)=O)cc1)C(=O)N2` [GW301784X] was tested, and the “Effect on starvation-induced LC3 flux” value (LC3 flux in U2OS cells) was “did not block LC3 flux”, the “Effect on starvation-induced increase in pS318 ATG13” value (ULK1 (pS318 ATG13)) was “did not have a significant effect” and the IC50 (AMPK α1β2ɣ1) was 347 nM. The IC50 (VPS34; pIC50 against VPS34, resynthesized samples, 50 µM ATP (KM app), mean ± SD, n = 5) was 26300 nM.

In the case of `O=C1Nc2ccc(C(=O)c3ccco3)cc2C1=Cc1cc(Cl)c(O)c(Cl)c1` [GW406108X], the “Effect on starvation-induced LC3 flux” value (LC3 flux in U2OS cells) is reported as “significantly blocked”, the “Enlarged/stalled LC3 puncta (autophagosomes) phenotype” value (LC3 puncta in U2OS cells; 2 µM MRT68921, 5 µM others, 60 min pre-treatment then 120 min EBSS) is reported as “did not show this phenotype” and the “Effect on EBSS-induced increase in LC3 puncta formation” value (LC3 puncta in U2OS cells; 5 µM, EBSS) is reported as “abolished”. The “Effect on starvation-induced increase in pS318 ATG13” value (ULK1 (pS318 ATG13)) was “significantly reduced” and the IC50 (VPS34; [1]) was 457 nM.

`O=C1Nc2ccc(-c3cccnc3)cc2C1=Cc1cc(Br)c(O)c(Br)c1` [GW429374A] was tested, and the “Effect on LC3 flux under EBSS starvation” value (LC3 flux in U2OS cells; 100 nM, 60 min pre-treatment then 60 min EBSS, U2OS) was “significantly reduced LC3 flux”, the “Effect on AMPK activity (pS556 ULK1)” value (AMPK (ULK1 pS556)) was “unaffected” and the “Effect on mTORC1 activity (pS758 ULK1)” value (mTOR (ULK1 pS758)) was “unaffected”. The IC50 (ULK1) was 8710 nM, the IC50 (AMPK α1β2ɣ1) was 3160 nM and the IC50 (VPS34; [1]) was 90.5 nM and 91 nM. The IC50 (VPS34; [2]) was under 1000 nM, the “Mechanism of inhibition of VPS34 with respect to ATP” value (VPS34) was “primarily ATP competitive inhibition” and the “Mechanism of inhibition of VPS34 with respect to PI:PS” value (VPS34) was “clear non-competitive inhibition”. The “Effect on EBSS-induced WIPI2 puncta” value (VPS34 (WIPI2 puncta); 100 nM, 60 min pre-treatment then 60 min EBSS, vs EBSS only) was “significantly reduced” and the “Concentration working in cells (WIPI2 puncta reduction)” value (VPS34 (WIPI2 puncta); EBSS, as low as) was at most 100 nM.
